Results from patent publication US10603357B2, “Therapeutic TREM-1 peptides” (Universite de Lorraine, priority 2004, dated 2020).

What was measured:
[1] = system: human monocytes; assay: in vitro stimulation of monocytes: TNF-α, IL-1β and sTREM-1 release; type: cell-based; conditions: P5 or control peptide 10 to 100 ng/mL, rIL-10 500 U/mL; for TNF-α and IL-1β production (release of inflammatory cytokines) in monocyte supernatant: LPS 1 μg/mL or LPS + anti-TREM-1 mAb; for release of sTREM-1 from monocytes cultured with LPS: LPS 1 μg/mL
Procedure: For cell activation, primary monocytes were cultured in 24-well flat-bottom tissue culture plates in the presence of LPS (1 μg/mL). In some experiments this stimulus was provided in combination with P5 (10 to 100 ng/mL), control peptide (10 to 100 ng/mL) or rIL-10 (500 U/mL). To activate monocytes through TREM-1, an agonist anti-TREM-1 mAb (10 μg/mL) was added as indicated. Cell-free supernatants were analysed for production of TNF-α, IL-1β. and sTREM-1 by ELISA or immunodot. All experiments were performed in triplicate and data are expressed as means (SEM). • a: Media • b: P5 10 ng/mL • c: Anti-TREM-1 • d: LPS • e: LPS+Anti-TREM-1 • f: LPS+P5 10 ng/mL • g: LPS+P5 50 ng/mL • h: LPS+P5 100 ng/mL • i: LPS+IL10
Ten mL of peripheral blood samples were collected on EDTA-K from 5 healthy volunteer donors originating from laboratory staff. After dilution in RPMI (Life Technologies, Grand Island, N.Y.) v/v, blood was centrifuged for 30 min at room temperature over a Ficoll gradient (Amersham Pharmacia, Uppsala, Sweden) to isolate PBMC. The cells recovered above the gradient were washed and counted. In order to deplete the suspensions of lymphocytes, cells were then plated in 24-well flat-bottom tissue culture plates (Corning, Corning, N.Y.) at a concentration of 5×10^6/mL and allowed to adhere during 2 hours at 37° C. The resulting lymphocyte suspension was discarded and the adhering monocytic cells were maintained in a 5% CO2 incubator at 37° C. in complete medium (RPMI 1640, 0.1 mM sodium pyruvate, […], 50 μg/mL Streptomycin; Life Technologies) supplemented with 10% FCS (Invitrogen, Cergy, France).
For activation, monocytes were cultured in the presence of E. coli LPS (0111:B4, 1 μg/mL, Sigma-Aldrich, La Verpillière, France). Cell viability was assessed by trypan blue exclusion and by measuring lactate dehydrogenase release. In some experiments, this stimulus was given in combination with TNF-α (5 to 100 ng/mL, R&D Systems, Lille, France), IL-1β (5 to 100 ng/mL, R&D Systems), rIFN-γ (up to 100 U/mL, R&D Systems), rIL-10 (500 U/ml, R&D Systems) or up to 100 ng/mL of P5 or control peptide.
In order to activate monocytes through TREM-1, an anti-TREM-1 agonist monoclonal antibody (R&D Systems) was added as follows: flat-bottom plates were precoated with 10 μg/mL anti-TREM-1 per well. After thorough washing in phosphate buffered saline (PBS), the monocyte suspensions were added at a similar concentration as above. Some experiments were performed in the presence of protease inhibitors (PMSF and Protease Cocktail Inhibitor; Invitrogen). Cell-free supernatants were assayed for the production of TNF-α and IL-1β by ELISA according to the recommendations of the manufacturer (BD Biosciences, San Diego, USA). To address the effect of P5 on NF-κB activity in monocytes, an ELISA-based assay was performed (BD Mercury™ Transfactor Kit, BD Biosciences). Monocytes were cultured for 24 hours in the presence of E. coli LPS (O111:B4, 1 μg/mL), and/or an agonist anti-TREM-1 monoclonal antibody (10 μg/mL), and/or P5 (100 ng/mL). Whole-cell extracts were then prepared and levels of NF-κB p50 and p65 were determined according to the recommendations of the manufacturer. All experiments were performed in triplicate and data are expressed as means (SEM). Identification and Quantitation of sTREM-1 Release
Primary monocytes suspensions were cultured as described above. The cells were treated with E. coli LPS (0111:B4, 1 μg/mL) for 24 hours at 37° C. Cell-conditioned medium was submitted to Western-blotting using an anti-TREM-1 monoclonal antibody (R&D Systems) in order to confirm the presence of 27 kDa material recognized by anti-TREM-1. Soluble TREM-1 levels were measured by assessing the optical intensity of bands on immunodots by means of a reflectance scanner and the Quantity One Quantitation Software (Bio-Rad, Cergy, France) as reported elsewhere (18). […]

[2] = system: BALB/c mice; assay: CLP polymicrobial sepsis model in mice (Example 3); type: in vivo, mouse; conditions: 24 hours after CLP; control peptide, dose not given in table (100 μg in source)
Procedure: Male Balb/C mice (20 to 23 g) were randomly grouped and treated with normal saline (n=14) or the control peptide (n=14, 100 μg) or with P5 (100 μg) in a single infection at HO (n=18), H+4 (n=18) or H+24 (n=18). The last group of mice (n=18) was treated with repeated injections of P5 (100 μg) at H+4, H+8 and H+24.
Mice (n=15 per group) were treated with a single injection of normal saline or 10 μg, 20 μg, 50 μg, 100 μg or 200 μg of P5 at HO after the CLP and monitored for survival.
Mice (5 per group) were killed under anaesthesia at 24 hours after CLP. Bacterial counts in peritoneal lavage fluid and blood were determined and results are expressed as CFU per mL of blood and CFU per mouse for the peritoneal lavage.
Male Balb/C mice (7 to 9 weeks, 20 to 23 g) were anaesthetized by i.p. administration of ketamine and xylazine in 0.2 mL sterile pyrogen-free saline. The caecum was exposed through a 1.0 cm abdominal midline incision and subjected to a ligation of the distal half followed by two punctures with a G21 needle. A small amount of stool was expelled from the punctures to ensure patency. The caecum was replaced into the peritoneal cavity and the abdominal incision closed in two layers. After surgery all mice were injected s.c. with 0.5 ml of physiologic saline solution for fluid resuscitation and s.c. every 12 h with 1.25 mg (i.e. 50 μg/g) of imipenem. The animals were randomly grouped and treated with normal saline (n=14), the control peptide (n=14, 100 μg) or P5 (100 μg) in a single injection at HO (n=18), H+4 (n=18) or H+24 (n=18). The last group of mice (n=18) was treated with repeated injections of P5 (100 μg) at H+4, H+8 and H+24. All treatments were diluted into 500 μl of normal saline and administered i.p. The Inventors next sought to determine the effect of various doses of P5. For this purpose, mice (n=15 per group) were treated with a single injection of normal saline or 10 μg, 20 μg, 50 μg 100 μg or 200 μg of P5 at HO after the CLP and monitored for survival. Five additional animals per group were killed under anaesthesia 24 hours after CLP for the determination of bacterial count and cytokines levels. Peritoneal lavage fluid was obtained using 2 mL RPMI 1640 (Life Technologies) and blood was collected by cardiac puncture. Concentrations of TNF-α and IL-1β in the serum were determined by ELISA (BD Biosciences). For the assessment of bacterial counts, blood and peritoneal lavage fluid were plated in serial log dilutions on tryptic soy supplemented with 5% sheep blood agar plates. After plating, tryptic soy agar plates were incubated at 37° C. aerobically for 24 hours, and anaerobically for 48 hours. Results are expressed as CFU per mL of blood and CFU per mouse for the peritoneal lavage.

[3] = system: BALB/c mice; assay: LPS-induced endotoxaemia, survival of mice (Example 1); type: in vivo, mouse
Procedure: BALB/c mice (10 per group) were injected intraperitoneally with 200 μg LPS. The TREM-1 peptides P1, P2, P3, or P5 (200 μl of a 300 μM solution per mouse) were injected intraperitoneally 1 hour before LPS. Viability of mice was monitored twice a day for 7 days. Statistical analysis was performed by Logrank test. Data from control mice represent cumulative survival curves from two independent experiments performed under identical conditions.
BALB/c mice (10 per group) were injected intraperitoneally with 200 μg LPS. TREM-1 peptide P1, 200 μl of a 300 μM solution per mouse was injected intraperitoneally 1 hour before or 4 hours after LPS. Viability of mice was monitored twice a day for 7 days. Statistical analysis was performed with the Logrank test. Data from control mice represent cumulative survival curves from two independent experiments performed under identical conditions
BALB/c mice (10 per group) were injected intraperitoneally with 200 μg LPS. P1 peptide, 200 μl of a 150, 300 and 600 μM solution per mouse (dots) or P3, 200 μl of a 600 μM solution per mouse (filled squares) were injected intraperitoneally 4 hours after LPS. Viability of mice was monitored twice a day for 7 days. Statistical analysis was performed with the Logrank test
In the experiments of this example, the peptides were administered in a volume of 200 μl of the solution molarity indicated. To assess the ability of TREM1-peptides to protect mice from LPS-induced endotoxaemia, the Inventors administered peptides P1, P2, P3 and P5 (300 μM) 1 hour before a lethal dose of lipopolysaccharide (LPS) (FIG. 2). Lethality was monitored over time and compared with animals that had received control injections of vehicle alone. P5 injection confers maximal protection, with 90% of the animals still alive 7 days after LPS injection, as compared with 10% of control mice (p<0.001). 60% of the P1-treated mice and 50% of the P2 treated mice survived endotoxaemia as compared with 10% of control mice (p<0.01 and p<0.05 respectively).
In order to investigate whether TREM-1 peptide treatment could be delayed until after the administration of LPS, the Inventors injected the peptides at 4 hours after LPS injection. […] 80% of the mice injected with P1 4 hours after LPS survived endotoxaemia compared to 60% of mice treated 1 h before LPS and 10% of mice treated with vehicle alone (p<0.001 and p<0.01 respectively). Thus, P1 is effective even when injected after the outbreak of endotoxaemia. […] P1 administration conferred maximal protection (80%) when administered at 600 μM (p<0.01) and the level of protection dropped to 50% at 300 μM (p<0.05) and further down to 30% at 150 μM as compared to 20% of control mice, indicating a dose dependent effect of P1 (FIG. 4). The Inventors then investigated whether P1 protects against septic shock in the “CLP” model (Cecal Ligation and Puncture is a widely used experimental model of sepsis). Mice treated with two doses of P1 at 5 and 24 hours after CLP were protected from death as compared to control treated mice (p=0.0791) although the difference was not statistically significant. 40% of the mice injected with P1 at 5 days after CLP survived compared to 5% of mice treated with P3 peptide.

[4] = system: C57BL/6 mice; assay: cecal ligation and puncture (CLP), survival of mice (Example 1); type: in vivo, mouse; conditions: 200 μl of 600 μM i.p. 5 and 24 hours after CLP; 5 days after CLP; 15 per group
Procedure: CLP was induced in C57BL/6 mice (15 per group) as described in Materials and Methods. P1 peptide (empty dots) or P3 peptide (filled squares) (200 μl of a 600 μM solution per mouse) were injected intraperitoneally 5 and 24 hours after CLP induction. Viability of mice was monitored twice a day for 10 days. Statistical analysis was performed with the Logrank test.
In order to investigate whether TREM-1 peptide treatment could be delayed until after the administration of LPS, the Inventors injected the peptides at 4 hours after LPS injection. […] 80% of the mice injected with P1 4 hours after LPS survived endotoxaemia compared to 60% of mice treated 1 h before LPS and 10% of mice treated with vehicle alone (p<0.001 and p<0.01 respectively). Thus, P1 is effective even when injected after the outbreak of endotoxaemia. […] P1 administration conferred maximal protection (80%) when administered at 600 μM (p<0.01) and the level of protection dropped to 50% at 300 μM (p<0.05) and further down to 30% at 150 μM as compared to 20% of control mice, indicating a dose dependent effect of P1 (FIG. 4). The Inventors then investigated whether P1 protects against septic shock in the “CLP” model (Cecal Ligation and Puncture is a widely used experimental model of sepsis). […]

[5] = system: TREM-1/TREM-1 ligand interaction; assay: competition of soluble mouse TREM-1/IgG1 binding to TREM-1 ligand positive peritoneal exudate cells (flow cytometry); conditions: peptides 100 and 500 μM, pre-incubated 45 minutes on ice; 2 μg/ml mouseTREM-1/hIgG1
Procedure: Cytofluorimetric analysis of peritoneal exudate cells with 2 μg/ml of mouseTREM-1/hIgG1 in the presence of a 500 μM solution per mouse (thin line), 100 μM solution per mouse (dotted line) or absence (thick line) of the peptides is shown. The grey histogram represents immunostaining with human IgG1 as a control.
A possible mechanism of action could be the ability of TREM-1 derived peptide to interfere with TREM-1/TREM-1 ligand interaction. To address this question the Inventors performed competition experiments on TREM-1 ligand positive cells: PEC (Peritoneal Exudate Cells) from CLP treated mice.
Peritoneal exudate cells (PEC) from mice suffering from a caecal ligation and puncture (CLP)-induced peritonitis were subjected to flow cytometry analysis after incubation with a PE-conjugated anti-human IgG1 (Jackson Immunoresearch, Bar Harbor, USA). Competition with TREM-1 peptides was performed by pre-incubating cells with the indicated concentrations of peptides for 45 minutes on ice before adding mTREM-1-IgG1.

Molecule	TNF-α and IL-1β production (release of inflammatory cytokines) in monocyte supernatant [1]	release of sTREM-1 from monocytes cultured with LPS [1]	inhibition of TREM-1 interaction with its ligand (mTREM-1/IgG1 binding to PEC) [5]	further results
TDSRCVIGLYHPPLQVY [P5sc, reference compound]	no action	no action	–	Serum IL-1β [2]: 841 ± 204 pg/mL; Serum TNF-α [2]: 105 ± 12 pg/mL; Serum sTREM-1 [2]: 52 ± 3 ng/mL
TTTRSLPKPTAVVSSPG [P3]	–	–	ineffective	time within which all treated mice died after LPS injection ([3]; 200 μl of 300 μM peptide i.p. 1 hour before LPS): ≤ 4 days; mice surviving after CLP [4]: 5%
VIYHPPNDPVVLFHPVRLVVTKG (listed as Mus musculus) [P2]	–	–	inhibit TREM-1 interaction with its ligand in a dose dependent manner	animals alive 7 days after LPS injection ([3]; 200 μl of 300 μM peptide i.p. 1 hour before 200 μg LPS i.p., 10 mice per group (FIG. 2, 3)): 50%
IL-10: rIL-10 (500 U/ml, R&D Systems) (protein, UniProt P22301 19-178, looked up) Interleukin-10: SPGQGTQSENSCTHFPGNLPNMLRDLRDAFSRVKTFFQMKDQLDNLLLKESLLEDFKGYLGCQALSEMIQFYLEEVMPQAENQDPDIKAHVNSLGENLKTLRLRLRRCHRFLPCENKSKAVEQVKNAFNKLQEKGIYKAMSEFDIFINYIEAYMTMKIRN	totally inhibited	totally inhibited	–	–
